Laboratory results: PubChem BioAssay AID1918942 (Molecular Pharmacology Branch, DTP, NCI, 2023)

Tested on: 743489-274-T-PDC complex spheroid viability
Test: Anticancer human tumor 743489-274-T-PDC patient-derived renal cell carcinoma cell line growth inhibition
Details: for IC50: curve of first compound; for viability, T/C: stronger effect = lower value
Method in brief: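 Multicellular complex spheroids of tumor cells with human endothelial cells (HUVEC) and mesenchymal stem cells; the LSD1 inhibitor iadademstat was combined with standard-of-care or investigational agents. Top concentration at or near clinical Cmax, half-log dilutions; final DMSO ≤0.25%.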

[1] = second compound 0.1 µM, first compound 0.000316 µM
[2] = second compound 0.1 µM, first compound 0.001 µM
[3] = second compound 0.1 µM, first compound 0.00316 µM
[4] = second compound 0.1 µM, first compound 0.01 µM
[5] = second compound 0.1 µM, first compound 0.0316 µM
[6] = second compound 0.1 µM, first compound 0.1 µM
[7] = second compound 0.316 µM, first compound 0.000316 µM
[8] = second compound 0.316 µM, first compound 0.001 µM
[9] = second compound 0.316 µM, first compound 0.00316 µM
[10] = second compound 0.316 µM, first compound 0.01 µM
[11] = second compound 0.316 µM, first compound 0.0316 µM
[12] = second compound 0.316 µM, first compound 0.1 µM
[13] = second compound 1 µM, first compound 0.000316 µM
[14] = second compound 1 µM, first compound 0.001 µM
[15] = second compound 1 µM, first compound 0.00316 µM
[16] = second compound 1 µM, first compound 0.01 µM
[17] = second compound 1 µM, first compound 0.0316 µM
[18] = second compound 1 µM, first compound 0.1 µM
[19] = second compound 3.16 µM, first compound 0.000316 µM
[20] = second compound 3.16 µM, first compound 0.001 µM
[21] = second compound 3.16 µM, first compound 0.00316 µM
[22] = second compound 3.16 µM, first compound 0.01 µM
[23] = second compound 3.16 µM, first compound 0.0316 µM
[24] = second compound 3.16 µM, first compound 0.1 µM
[25] = second compound 10 µM, first compound 0.000316 µM
[26] = second compound 10 µM, first compound 0.001 µM
[27] = second compound 10 µM, first compound 0.00316 µM
[28] = second compound 10 µM, first compound 0.01 µM
[29] = second compound 10 µM, first compound 0.0316 µM
[30] = second compound 10 µM, first compound 0.1 µM
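Note: spheroids exposed to compounds for 7 days before readout.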
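Throughout, for viability, T/C: 100% = DMSO vehicle control wells.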

| Compound | IC50 (second compound 0.1 µM) | IC50 (second compound 0.316 µM) | IC50 (second compound 1 µM) | IC50 (second compound 3.16 µM) | IC50 (second compound 10 µM) | viability, T/C [3] | viability, T/C [4] | viability, T/C [5] | viability, T/C [6] | viability, T/C [9] | viability, T/C [10] | viability, T/C [11] | viability, T/C [12] | viability, T/C [15] | viability, T/C [16] | viability, T/C [17] | viability, T/C [18] | viability, T/C [21] | viability, T/C [22] | viability, T/C [23] | also measured |
| --- | --- | --- | --- | --- | --- | --- | --- | --- | --- | --- | --- | --- | --- | --- | --- | --- | --- | --- | --- | --- | --- |
| CC(C)CC(NC(=O)C(Cc1ccccc1)NC(=O)c1cnccn1)B(O)O (stereo not given) + NC1CCC(NC2CC2c2ccccc2)CC1 | 7.65 nM | 7.9 nM | 7.38 nM | 8.58 nM | 8.22 nM | 121% | 33.7% | 29.6% | 30.3% | 115% | 33.4% | 19.1% | 26.7% | 113% | 36.8% | 23.7% | 28.1% | 113% | 40.3% | 22.3% | viability, T/C [1]: 115%; viability, T/C [2]: 100%; viability, T/C [7]: 119%; viability, T/C [8]: 109%; viability, T/C [13]: 100%; viability, T/C [14]: 108%; viability, T/C [19]: 122%; viability, T/C [20]: 103%; viability, T/C [24]: 38.3%; viability, T/C [25]: 117%; viability, T/C [26]: 119%; viability, T/C [27]: 123%; viability, T/C [28]: 35.8%; viability, T/C [29]: 22.1%; viability, T/C [30]: 35.5% |
| CC(C)CC(NC(=O)CNC(=O)c1cc(Cl)ccc1Cl)B1OC(=O)CC(CC(=O)O)(C(=O)O)O1 (stereo not given) + NC1CCC(NC2CC2c2ccccc2)CC1 | > 100 nM | 92.5 nM | > 100 nM | > 100 nM | 86.5 nM | 109% | 80.4% | 72.6% | 60.7% | 108% | 80.5% | 79.8% | 46.6% | 108% | 98.1% | 78.4% | 51.9% | 105% | 89.1% | 92.6% | viability, T/C [1]: 95.9%; viability, T/C [2]: 105%; viability, T/C [7]: 119%; viability, T/C [8]: 123%; viability, T/C [13]: 120%; viability, T/C [14]: 120%; viability, T/C [19]: 104%; viability, T/C [20]: 113%; viability, T/C [24]: 48.9%; viability, T/C [25]: 134%; viability, T/C [26]: 107%; viability, T/C [27]: 100%; viability, T/C [28]: 100%; viability, T/C [29]: 76.6%; viability, T/C [30]: 43.9% |
| COc1cc(Nc2ncc3c(n2)-c2ccc(Cl)cc2C(c2c(F)cccc2OC)=NC3)ccc1C(=O)O + NC1CCC(NC2CC2c2ccccc2)CC1 | > 1000 nM | > 1000 nM | > 1000 nM | > 1000 nM | > 1000 nM | 104% | 104% | 92.6% | 86.2% | 100% | 96% | 103% | 82.5% | 104% | 105% | 88.8% | 86.6% | 92.6% | 100% | 100% | viability, T/C (second compound 0.1 µM, first compound 0.316 µM): 90.3%; viability, T/C (second compound 0.1 µM, first compound 1 µM): 82.2%; viability, T/C (second compound 0.316 µM, first compound 0.316 µM): 89.7%; viability, T/C (second compound 0.316 µM, first compound 1 µM): 85%; viability, T/C (second compound 1 µM, first compound 0.316 µM): 92.5%; viability, T/C (second compound 1 µM, first compound 1 µM): 97.2%; viability, T/C [24]: 79.4%; viability, T/C (second compound 3.16 µM, first compound 0.316 µM): 104%; viability, T/C (second compound 3.16 µM, first compound 1 µM): 97.2%; viability, T/C [27]: 102%; viability, T/C [28]: 111%; viability, T/C [29]: 105%; viability, T/C [30]: 99.2%; viability, T/C (second compound 10 µM, first compound 0.316 µM): 102%; viability, T/C (second compound 10 µM, first compound 1 µM): 93.8% |
